Experimental data reported in US20250230193A1, “CYCLIC COMPOUND HAVING SELECTIVE KRAS INHIBITORY EFFECT ON HRAS AND NRAS” (CHUGAI SEIYAKU KABUSHIKI KAISHA, priority 2022, published 2025).
*1 amine or outer side, *2 acyl side, *3 side chain or, on linkers, in order; H or OH if unused. Where a SMILES comes first, the peptide text is derived from it. Bridges are numbered along the chain shown (N, C = ends). [ ]: non-standard residue; d: D form. The star is where a group is joined. hPhe(3,5-F2-4-CF3) = N[C@@H](CCc1cc(F)c(C(F)(F)F)c(F)c1)C(=O)O; hPhe(3-Cl-4-CF3) = N[C@@H](CCc1ccc(C(F)(F)F)c(Cl)c1)C(=O)O; NPrPhe(4-CF3) = CCCN[C@@H](Cc1ccc(C(F)(F)F)cc1)C(=O)O; NEtAsp = CCN([C@@H](CC(=O)[*:3])C(=O)[*:2])[*:1]; NMeGly(cPent) = CN[C@H](C(=O)O)C1CCCC1; Hyp = O=C(O)[C@@H]1C[C@@H](O)CN1; NMeD = CN[C@@H](CC(=O)O)C(=O)O; NMeL = CN[C@@H](CC(C)C)C(=O)O; αMeL = CC(C)C[C@](C)(N)C(=O)O; Iva = CC[C@](C)(N)C(=O)O; Morpholide = C1CN(*)CCO1; Aze = O=C(O)[C@@H]1CCN1; Ac4c = NC1(C(=O)O)CCC1; Sar = CNCC(=O)O

Assays:
[1] = biological target: GDP-bound HRAS wild-type protein (Homo sapiens, UniProt P01112); assay: Binding to HRAS by surface plasmon resonance (SPR), Single Cycle Kinetics; conditions: SPR
[2] = biological target: GDP-bound NRAS wild-type protein (Homo sapiens, UniProt P01111); assay: Binding to NRAS by surface plasmon resonance (SPR), Single Cycle Kinetics; conditions: SPR
[3] = GDP-bound HRAS wild-type vs GDP-bound KRAS wild-type
[4] = GDP-bound NRAS wild-type vs GDP-bound KRAS wild-type

Chain of GDP-bound HRAS wild-type protein (P01112 whole entry): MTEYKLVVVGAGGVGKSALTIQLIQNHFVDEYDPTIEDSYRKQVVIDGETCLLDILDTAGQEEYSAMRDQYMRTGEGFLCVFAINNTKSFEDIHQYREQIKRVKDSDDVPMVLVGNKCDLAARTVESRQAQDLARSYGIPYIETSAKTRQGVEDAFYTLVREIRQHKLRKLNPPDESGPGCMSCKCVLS
Chain of GDP-bound NRAS wild-type protein (P01111 whole entry): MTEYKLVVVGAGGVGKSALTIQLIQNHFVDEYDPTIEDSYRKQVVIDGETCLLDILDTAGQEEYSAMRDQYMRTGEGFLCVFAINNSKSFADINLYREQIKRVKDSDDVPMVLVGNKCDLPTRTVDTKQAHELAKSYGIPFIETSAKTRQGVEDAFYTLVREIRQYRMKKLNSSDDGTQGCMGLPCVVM

CCCN1C(=O)[C@@H]2CCN2C(=O)CN(C)C(=O)[C@H]([C@@H](C)CC)NC(=O)[C@H](CC(C)C)N(C)C(=O)C[C@@H](C(=O)N2CCOCC2)N(C)C(=O)[C@H](C2CCCC2)N(C)C(=O)[C@](C)(CC(C)C)NC(=O)[C@@H]2CCCN2C(=O)[C@H](CCc2cc(F)c(C(F)(F)F)c(F)c2)NC(=O)CN(C)C(=O)[C@@H]1Cc1ccc(C(F)(F)F)cc1 [PP0795] ([NMeL]I[Sar][Aze][NPrPhe(4-CF3)][Sar][hPhe(3,5-F2-4-CF3)]P[αMeL][NMeGly(cPent)][NMeD]-Morpholide; lactam N-11)
HRAS/KRAS (ratio of KD value with respect to GDP-bound HRAS wild-type protein to KD value with respect to KRAS) ([1]; KD ratio HRAS/KRAS): B (a compound having 3 or more and less than 10 is denoted as B)
NRAS/KRAS (ratio of KD value with respect to GDP-bound NRAS wild-type protein to KD value with respect to KRAS) ([2]; KD ratio NRAS/KRAS): C (A compound having a KD ratio of 0.1 or more and less than 3 is denoted as C)

CCCN1C(=O)CN(C)C(=O)CN(C)C(=O)[C@H]([C@@H](C)CC)NC(=O)[C@H](CC(C)C)N(C)C(=O)C[C@@H](C(=O)N(C)C)N(CC)C(=O)[C@H](C2CCCC2)N(C)C(=O)C2(CCC2)NC(=O)[C@@H]2CCCN2C(=O)[C@H](CCc2ccc(C(F)(F)F)c(Cl)c2)NC(=O)CN(C)C(=O)[C@@H]1Cc1ccc(C(F)(F)F)cc1 [PP1956] ([NMeL]I[Sar][Sar][NPrPhe(4-CF3)][Sar][hPhe(3-Cl-4-CF3)]P[Ac4c][NMeGly(cPent)][NEtAsp]-NMe2; lactam N-11)
HRAS/KRAS (ratio of KD value for HRAS to KD value for KRAS) [1, 3]: B (a compound having 3 or more and less than 10 is denoted as B)
NRAS/KRAS (ratio of KD value for NRAS to KD value for KRAS) [2, 4]: B (a compound having 3 or more and less than 10 is denoted as B)

CCC[C@H]1C(=O)N[C@@H]([C@@H](C)CC)C(=O)N2CCC[C@H]2C(=O)N(C)[C@H]2C/C=C\CCN(C2=O)[C@@H](CC2CCCCC2)C(=O)N(C)CC(=O)N[C@@H](CCc2ccc(C(F)(F)F)c(OC)c2)C(=O)N2C[C@H](OCC)C[C@H]2C(=O)N(C)C2(CCC2)C(=O)N(C)[C@@H](C(CC)CC)C(=O)N(C)[C@H](C(=O)N(C)C)CC(=O)N1C [PP2341]
HRAS/KRAS (ratio of KD value with respect to HRAS to KD value with respect to KRAS) [1, 3]: A (a compound having 10 or more and less than 20 is denoted as A)
NRAS/KRAS (ratio of KD value with respect to NRAS to KD value with respect to KRAS) [2, 4]: A (a compound having 10 or more and less than 20 is denoted as A)

CCCN1C(=O)CN(C)C(=O)[C@@H]2CCN2C(=O)[C@H]([C@@H](C)CC)NC(=O)[C@H](CC(C)C)N(C)C(=O)C[C@@H](C(=O)N(C)C)NC(=O)[C@H](C2CCCC2)N(C)C(=O)C2(CCC2)NC(=O)[C@@H]2C[C@@H](OCC)CN2C(=O)[C@H](CCc2ccc(C(F)(F)F)c(Cl)c2)NC(=O)CN(C)C(=O)[C@@H]1Cc1ccc(C(F)(F)F)cc1 [PP0378] ([NMeL]I[Aze][Sar][NPrPhe(4-CF3)][Sar][hPhe(3-Cl-4-CF3)][Hyp](Et)[Ac4c][NMeGly(cPent)]D-NMe2; lactam N-11)
HRAS/KRAS (ratio of KD for GDP-bound HRAS wild-type to KD for KRAS) ([1]; KD ratio HRAS/KRAS): B (a compound having 3 or more and less than 10 is denoted as B)
NRAS/KRAS (ratio of KD for GDP-bound NRAS wild-type to KD for KRAS) ([2]; KD ratio NRAS/KRAS): B (a compound having 3 or more and less than 10 is denoted as B)

CCCO[C@H](C)[C@@H]1NC(=O)[C@H](CC(C)C)N(C)C(=O)C[C@@H](C(=O)N(C)C)N(C)C(=O)[C@H](C2CCCC2)N(C)C(=O)C2(CC(C)(C)C2)NC(=O)[C@@H]2C[C@@H](OCC)CN2C(=O)[C@H](CCc2cc(F)c(C(F)(F)F)c(F)c2)NC(=O)CN(C)C(=O)[C@H](Cc2ccc(C(F)(F)F)cc2)N2CC/C=C\C[C@@H](C2=O)N(C)C(=O)CN(C)C1=O [PP1921]
HRAS/KRAS (ratio of KD value for HRAS to KD value for KRAS) [1, 3]: A (a compound having 10 or more and less than 20 is denoted as A)
NRAS/KRAS (ratio of KD value for NRAS to KD value for KRAS) [2, 4]: A (a compound having 10 or more and less than 20 is denoted as A)

CCO[C@@H]1C[C@H]2C(=O)NC3(CC(C)(C)C3)C(=O)N(C)[C@@H](C3CCCC3)C(=O)N(C)[C@H](C(=O)N3CCCC3)CC(=O)N(C)[C@H]3CCCCCc4ccc(cc4)C[C@@H](C(=O)N(C)CC(=O)N[C@@H](CCc4ccc(C(F)(F)F)c(OC)c4)C(=O)N2C1)N1CC/C=C\C[C@@H](C1=O)N(C)C(=O)CN(C)C(=O)[C@H]([C@@H](C)CC)NC3=O [PP3037, (1S,7S,11R,13S,19S,22S,26S,29S,35S,37Z)-19-cyclopentyl-11-ethoxy-7-[2-[3-methoxy-4-(trifluoromethyl)phenyl]ethyl]-3,3′,3′,18,21,25,31,34-octamethyl-29-[(1S)-1-methylpropyl]-22-(pyrrolidine-1-carbonyl)spiro[3,6,9,15,18,21,25,28,31,34,41-undecazapentacyclo[24.15.10.2^43,46.1^35,41.0^9,13]tetrapentaconta-37,43(53),44,46(52)-tetraene-16,1′-cyclobutane]-2,5,8,14,17,20,24,27,30,33,54-undecone]
HRAS/KRAS (ratio of KD value with respect to GDP-bound HRAS wild-type protein to KD value with respect to KRAS) ([1]; KD ratio HRAS/KRAS, GDP-bound wild-type proteins): B (a compound having 3 or more and less than 10 is denoted as B)
NRAS/KRAS (ratio of KD value with respect to GDP-bound NRAS wild-type protein to KD value with respect to KRAS) ([2]; KD ratio NRAS/KRAS, GDP-bound wild-type proteins): A (a compound having 10 or more and less than 20 is denoted as A)

CCCN1C(=O)[C@@H]2CCN2C(=O)CN(C)C(=O)[C@H]([C@@H](C)CC)NC(=O)[C@H](CC(C)C)N(C)C(=O)C[C@@H](C(=O)N2CCOCC2)N(C)C(=O)[C@H](C2CCCC2)N(C)C(=O)[C@](C)(CC)NC(=O)[C@@H]2CCCN2C(=O)[C@H](CCc2cc(F)c(C(F)(F)F)c(F)c2)NC(=O)CN(C)C(=O)[C@@H]1Cc1ccc(C(F)(F)F)cc1 [PP0790] ([NMeL]I[Sar][Aze][NPrPhe(4-CF3)][Sar][hPhe(3,5-F2-4-CF3)]P[Iva][NMeGly(cPent)][NMeD]-Morpholide; lactam N-11)
HRAS/KRAS (ratio of KD value with respect to GDP-bound HRAS wild-type protein to KD value with respect to KRAS) ([1]; KD ratio HRAS/KRAS): B (a compound having 3 or more and less than 10 is denoted as B)
NRAS/KRAS (ratio of KD value with respect to GDP-bound NRAS wild-type protein to KD value with respect to KRAS) ([2]; KD ratio NRAS/KRAS): C (A compound having a KD ratio of 0.1 or more and less than 3 is denoted as C)
